Results: patent US20070155707A1 (Kadmus Pharmaceuticals, Inc., priority 2005, published 2007)

Assays:
[1] = target: T1, fatty acid amide hydrolase (FAAH) (Homo sapiens, UniProt O00519); test: FAAH LC-MS/MS screening assay, IC50 determination (anandamide hydrolysis by human liver microsomes); type: biochemical; conditions: inhibition of FAAH activity
T1 construct: 25 μL of human liver microsomes (31.3 μg); from tissue; host or cells: human liver microsomes
T1 sequence (O00519 1-579): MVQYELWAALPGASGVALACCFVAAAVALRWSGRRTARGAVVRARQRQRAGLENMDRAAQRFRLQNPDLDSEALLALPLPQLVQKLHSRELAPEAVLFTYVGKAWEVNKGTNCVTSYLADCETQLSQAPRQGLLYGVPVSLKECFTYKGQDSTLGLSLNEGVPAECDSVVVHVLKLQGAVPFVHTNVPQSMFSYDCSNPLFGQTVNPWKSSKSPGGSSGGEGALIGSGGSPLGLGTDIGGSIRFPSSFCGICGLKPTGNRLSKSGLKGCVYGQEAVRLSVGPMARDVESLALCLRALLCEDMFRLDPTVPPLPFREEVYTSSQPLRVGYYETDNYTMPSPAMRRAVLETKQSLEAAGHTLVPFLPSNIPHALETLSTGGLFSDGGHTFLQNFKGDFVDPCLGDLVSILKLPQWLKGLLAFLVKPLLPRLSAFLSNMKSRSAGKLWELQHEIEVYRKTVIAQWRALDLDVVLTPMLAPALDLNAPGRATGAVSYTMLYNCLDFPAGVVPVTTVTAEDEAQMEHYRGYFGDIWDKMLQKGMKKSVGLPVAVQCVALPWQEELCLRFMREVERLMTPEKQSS
Experimental: For determining IC50 values for candidate FAAH inhibitor compounds, the above method is used with an adjusted FAAH inhibitor concentration. In the IC50 assay, the FAAH inhibitor is added at a concentration range of approximately 3 μM to 0.03 nM. The final calculation of IC50 is determined by first transforming the concentrations by “X=log(X)” and then analyzing the data with a sigmoidal dose-response curve (no constraints) using GraphPad Prism version 4.00 for Windows (GraphPad Software, San Diego Calif. USA, www.graphpad.com).

[2] = system: FAAH; conditions: Kathuria 2003; Mor 2004; WO 2004/033422; cited from earlier work
[3] = Determination of pharmacokinetics in rats following oral administration (plasma and brain); type: in vivo, rat; conditions: for Brain AUC / Brain Cmax / AUC / Cmax: 10 mg/kg oral gavage, solution; for AUC / Cmax: rat, plasma
Experimental: Potential FAAH inhibitors are formulated for oral (p.o.), intraperitoneal (i.p.) or intravenous (i.v.) delivery to rats. Formulated compounds are administered and the animals were sacrificed at pre-determined time points post dose. At sacrifice, blood samples are collected into EDTA plasma tubes and whole brains were snap frozen in liquid nitrogen. EDTA plasma was isolated from blood samples after centrifugation. Brain and plasma samples are stored at −80° C. prior to analysis. All samples (brain and plasma) are analyzed for the concentrations of test compound (FAAH inhibitor), metabolites of the test compound and endogenous fatty acid ethanolamide levels (including anandamide, oleoylethanolamide, and palmitoylethanolamide) by LC-MS/MS. Levels of these compounds are compared across time points to determine pharmacokinetic properties of the test compounds and partial pharmacological effects of inhibiting FAAH activity (including changes of fatty acid ethanolamide levels).
The pharmacokinetic properties of compounds provided herein were assessed in rats following oral administration as a solution. […] The solution of the test compound was administered to rats at a dose of 10 mg/kg via oral gavage.

| Structure (SMILES) | IC50 [1] [nM] | Inhibition of FAAH activity (in words) [2] | Brain AUC [3] | Brain Cmax [3] | Crossing of the blood brain barrier ([3]; 10 mg/kg oral, conclusion from Table 2) | AUC [3] [ng·h/mL] | Cmax [3] [ng/mL] |
| --- | --- | --- | --- | --- | --- | --- | --- |
| O=C(O)Cc1cccc(OC(=O)NCC2CCCCC2)c1 [Compound 7] | < 100 | – | – | – | – | – | – |
| NC(=O)c1cccc(-c2cccc(OC(=O)NC3CCCCC3)c2)c1 | – | potent and selective inhibitors of FAAH activity | – | – | – | – | – |
| O=C(NCC1CCCCC1)Oc1cccc(-c2nnn[nH]2)c1 [Compound 11, 3-(1H-Tetrazol-5-yl)phenyl cyclohexylmethylcarbamate] | < 100 | – | – | – | – | – | – |
| O=C(NCC1CCCCC1)Oc1ccc(C(=O)O)cc1 [Compound 4, 4-(Cyclohexylmethylcarbamoyloxy)benzoic acid] | < 100 | – | 483 ng·h/g | 475 ng/g | does not substantially cross the blood brain barrier | 8840 | 7720 |
| O=C(NCC1CCCCC1)Oc1cccc(C(=O)O)c1 [Compound 2, 3-(Cyclohexylmethylcarbamoyloxy)benzoic acid] | < 100 | – | – | – | – | 1700 | 1250 |
| NC(=O)c1cccc(-c2cccc(OC(=O)NC3CCCCC3)c2)c1 [KDS-4103, reference compound] | – | – | 9,737 ng * hr/g | 4,584 ng/g | – | 6730 | 3160 |
